pIC50: −log10 of the molar value.
Legend:
CDK2/CycE = biological target: T1, CDK2/CycE (Homo sapiens, UniProt P24941); experiment: CDK2/CycE kinase assay (Assay 2); type: biochemical; details: 0.5 μM ATP, histon IIIS, 10 min 22° C.; read-out: CDK2/CycE (Assay 2) Concentration for half-maximal inhibition of the enzyme activity, IC50
T1 construct: purchased ProQinase GmbH, Freiburg, Germany; host or cells: baculovirus-infected insect cells (Sf9)
Description: Recombinant CDK2 and CycE-GST fusion proteins, purified from baculovirus-infected insect cells (Sf9), were purchased from ProQinase GmbH, Freiburg, Germany. Histon HIS, used as kinase substrate, was purchased from Sigma.
The reaction was stopped by adding EDTA solution (250 mM, pH 8.0, 15 μl/measuring point).
From each reaction mixture, 15 μl was applied to P30 filter strips (from Wallac), and unincorporated ^33P-ATP was removed by washing the filter strips three times, for 10 min each time, in 0.5% phosphoric acid. After drying the filter strips for 1 hour at 70° C., the filter strips were covered with scintillator strips (MeltiLex™ A, from Wallac) and stoved for 1 hour at 90° C. The amount of incorporated ^33P (substrate phosphorylation) was determined by scintillation measurement in a gamma-radiation measuring instrument (Wallac). […] The IC50 values were determined by means of a 4-parameter fit using the company's own software.

HCT116 = experiment: Proliferation assay HCT116; type: cell-based; details: Homo sapiens, HCT-116, 96 h; HCT116, colon/rectum carcinoma; 4 days, crystal violet
Description: (§1) Cultivated human tumor cells (originally obtained from ATCC, HeLa-MaTu and HeLa-MaTu-ADR, originally obtained from Epo GmbH, Berlin, Germany) were plated at a density of 1000 to 5000 cells/measuring point, depending on the growth rate of the cell line, in a 96-well multititer plate in 200 μl of growth medium (DMEM/HAMS F12, 2 mM L-glutamine, 10% fetal calf serum). After 24 hours the cells of one plate (zero-point plate) were stained with crystal violet (see below), whereas the medium of the other plates was replaced with fresh culture medium (200 μl), to which the test substances had been added at various concentrations (0 μM, and in the range 0.01-30 μM; the final concentration of the solvent dimethyl sulfoxide was 0.5%). The cells were incubated for 4 days in the presence of the test substances. Cellular proliferation was determined by staining the cells with crystal violet: the cells were fixed by adding 20 μl/measuring point of an 11% glutaraldehyde solution for 15 min at room temperature. After washing the fixed cells with water three times, the plates were dried at room temperature. The cells were stained by adding 100 μl/measuring point of a 0.1% crystal violet solution (pH adjusted to pH3 by adding acetic acid). After washing the stained cells with water three times, the plates were dried at room temperature. The dye was dissolved by adding 100 μl/measuring point of a 10% acetic acid solution. The extinction was determined photometrically at a wavelength of 595 nm. The percentage change in cell growth was calculated by standardization of the measured values to the extinction values of the zero-point plate (=0%) and the extinction of the untreated (0 μM) cells (=100%). The measured data were standardized to 0% inhibition (cell proliferation without inhibitor) and 100% inhibition (zero-point plate). The IC50 values were determined by means of a 4-parameter fit using the company's own software.
(§2) The substances were examined in the following cell lines which, in an exemplary manner, represent the stated indications: […]

CDK1/CycB = biological target: T2, CDK1/CycB (Homo sapiens, UniProt P06493); experiment: CDK1/CycB kinase assay (Assay 1); type: biochemical; details: 0.5 μM ATP, histon IIIS, 10 min 22° C.; read-out: CDK1/CycB (Assay 1) Concentration for half-maximal inhibition of the enzyme activity, IC50
T2 construct: purchased ProQinase GmbH, Freiburg, Germany; host or cells: baculovirus-infected insect cells (Sf9)
Description: Recombinant CDK1 and CycB-GST fusion proteins, purified from baculovirus-infected insect cells (Sf9), were purchased from ProQinase GmbH, Freiburg, Germany. The histon HIS used as kinase substrate is commercially available from Sigma.
CDK1/CycB (200 ng/measuring point) was incubated for 10 min at 22° C. in the presence of various concentrations of test substances (0 μM, and within the range 0.01-100 μM) in assay buffer [50 mM Tris/HCl pH8.0, 10 mM MgCl2, 0.1 mM Na ortho-vanadate, 1.0 mM dithiothreitol, 0.5 μM adenosine triphosphate (ATP), 10 μg/measuring point histon IIIS, 0.2 μCi/measuring point ^33P-gamma ATP, 0.05% NP40, 1.25% dimethyl sulfoxide]. The reaction was stopped by adding EDTA solution (250 mM, pH 8.0, 15 μl/measuring point).
(§3) From each reaction mixture, 15 μl were applied to P30 filter strips (from Wallac), and unincorporated ^33P-ATP was removed by washing the filter strips three times, for 10 min each time, in 0.5% phosphoric acid. After drying the filter strips for 1 hour at 70° C., the filter strips were covered with scintillator strips (MeltiLex™ A, from Wallac) and stoved for 1 hour at 90° C. The amount of incorporated ^33P (substrate phosphorylation) was determined by scintillation measurement in a gamma-radiation measuring instrument (Wallac). The measured data were standardized to 0% inhibition (enzyme reaction without inhibitor) and 100% inhibition (all assay components except enzyme). The IC50 values were determined by means of a 4-parameter fit using the company's own software.

[1] = biological target: T3, VEGF receptor tyrosine kinase-2 (VEGF-R2) (Homo sapiens, UniProt P35968); experiment: VEGF receptor-2 kinase assay (Assay 3); type: biochemical; details: 8 μM ATP, poly-(Glu4Tyr), 10 min 22° C.; read-out: VEGF-R2 (Assay 3) Concentration for half-maximal inhibition of the enzyme activity, IC50
T3 construct: GST; made in house; host or cells: baculovirus-infected insect cells (Sf9)
Description: Recombinant VEGF receptor tyrosine kinase-2 was purified as GST fusion protein from baculovirus-infected insect cells (Sf9). Poly-(Glu4Tyr), used as kinase substrate, was purchased from Sigma.
VEGF receptor tyrosine kinase (90 ng/measuring point) was incubated for 10 min at 22° C. in the presence of various concentrations of test substances (0 μM, and within the range 0.001-30 μM) in 30 μl assay buffer [40 mM Tris/HCl pH5.5, 10 mM MgCl2, 1 mM MnCl2, 3 μM Na ortho-vanadate, 1.0 mM dithiothreitol, 8 μM adenosine triphosphate (ATP), 0.96 μg/measuring point poly-(Glu4Tyr), 0.2 μCi/measuring point ^33P-gamma ATP, 1.4% dimethyl sulfoxide]. The reaction was stopped by adding EDTA solution (250 mM, pH 8.0, 15 μl/measuring point).
as §3, with “μl was” for “μl were”

HeLa = experiment: Proliferation assay HeLa; type: cell-based; details: Homo sapiens, 96 h, cervix carcinoma, 4 days, crystal violet
Description: as §1, §2

SW480 = experiment: Proliferation assay SW480; type: cell-based; details: Homo sapiens, 96 h; SW480, colon/rectum carcinoma; 4 days, crystal violet
Description: as §1, §2

DU145 = experiment: Proliferation assay DU145; type: cell-based, human; details: DU145, prostate carcinoma, 4 days, crystal violet
Description: as §1, §2

MCF7 = experiment: Proliferation assay MCF7; type: cell-based, human; details: MCF7, estrogen receptor-positive mamma carcinoma, 4 days, crystal violet
Description: as §1, §2

NCI-H460 = experiment: Proliferation assay NCI-H460; type: cell-based, human; details: NCI-H460, non-small-cell bronchial carcinoma, 4 days, crystal violet
Description: as §1, §2

HeLa-MaTu-ADR = experiment: Proliferation assay HeLa-MaTu-ADR; type: cell-based, human; details: cervix carcinoma, 4 days, crystal violet
Description: as §1, §2

Caco-2 = experiment: Proliferation assay Caco-2; type: cell-based, human; details: Caco-2, colon/rectum carcinoma, 4 days, crystal violet
Description: as §1, §2

HeLa-MaTu = experiment: Proliferation assay HeLa-MaTu; type: cell-based, human; details: cervix carcinoma, 4 days, crystal violet
Description: as §1, §2

T3 sequence (P35968 20-1356, species assumed): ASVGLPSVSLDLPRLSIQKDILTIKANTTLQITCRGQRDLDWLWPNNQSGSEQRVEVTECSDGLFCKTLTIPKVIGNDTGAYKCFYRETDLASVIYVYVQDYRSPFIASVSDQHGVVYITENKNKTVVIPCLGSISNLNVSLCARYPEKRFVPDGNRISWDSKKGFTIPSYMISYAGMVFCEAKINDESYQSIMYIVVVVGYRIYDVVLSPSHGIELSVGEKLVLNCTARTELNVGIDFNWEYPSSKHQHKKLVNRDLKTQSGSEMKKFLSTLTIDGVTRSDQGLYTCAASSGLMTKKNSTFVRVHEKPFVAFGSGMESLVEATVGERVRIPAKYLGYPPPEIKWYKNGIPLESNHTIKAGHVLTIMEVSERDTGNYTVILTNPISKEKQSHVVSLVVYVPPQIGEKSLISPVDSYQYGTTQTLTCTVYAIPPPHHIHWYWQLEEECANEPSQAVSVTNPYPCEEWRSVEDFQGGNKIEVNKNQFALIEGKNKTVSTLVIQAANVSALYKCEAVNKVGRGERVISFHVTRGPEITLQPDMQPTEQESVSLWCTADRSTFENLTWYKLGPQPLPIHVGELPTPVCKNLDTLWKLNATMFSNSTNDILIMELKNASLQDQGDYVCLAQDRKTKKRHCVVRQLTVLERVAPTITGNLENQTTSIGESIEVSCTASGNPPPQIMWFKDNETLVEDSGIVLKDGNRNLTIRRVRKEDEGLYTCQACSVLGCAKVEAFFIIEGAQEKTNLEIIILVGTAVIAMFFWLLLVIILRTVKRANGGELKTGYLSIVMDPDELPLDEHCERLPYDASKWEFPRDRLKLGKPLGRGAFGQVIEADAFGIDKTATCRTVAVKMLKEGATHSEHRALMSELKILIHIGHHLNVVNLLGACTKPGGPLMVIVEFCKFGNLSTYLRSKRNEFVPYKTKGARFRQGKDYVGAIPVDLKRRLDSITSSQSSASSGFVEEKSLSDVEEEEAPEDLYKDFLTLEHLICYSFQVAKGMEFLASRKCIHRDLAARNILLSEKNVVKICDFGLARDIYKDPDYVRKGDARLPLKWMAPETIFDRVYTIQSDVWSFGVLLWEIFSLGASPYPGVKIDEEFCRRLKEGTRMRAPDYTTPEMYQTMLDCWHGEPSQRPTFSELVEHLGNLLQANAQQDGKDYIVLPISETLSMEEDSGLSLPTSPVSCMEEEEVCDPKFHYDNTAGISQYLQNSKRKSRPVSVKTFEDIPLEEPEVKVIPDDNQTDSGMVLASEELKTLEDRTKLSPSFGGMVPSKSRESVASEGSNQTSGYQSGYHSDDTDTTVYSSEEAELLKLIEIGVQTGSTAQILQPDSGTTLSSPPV
T2 sequence (P06493 whole entry): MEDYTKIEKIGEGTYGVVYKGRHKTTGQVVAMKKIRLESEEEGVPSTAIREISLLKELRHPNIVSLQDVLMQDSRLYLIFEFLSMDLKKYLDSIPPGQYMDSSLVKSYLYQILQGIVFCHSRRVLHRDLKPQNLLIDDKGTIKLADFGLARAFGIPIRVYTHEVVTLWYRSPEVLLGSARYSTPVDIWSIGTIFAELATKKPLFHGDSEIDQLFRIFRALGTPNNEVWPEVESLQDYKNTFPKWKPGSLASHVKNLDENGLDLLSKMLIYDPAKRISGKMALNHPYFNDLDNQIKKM
T2 sequence (P14635 whole entry partner): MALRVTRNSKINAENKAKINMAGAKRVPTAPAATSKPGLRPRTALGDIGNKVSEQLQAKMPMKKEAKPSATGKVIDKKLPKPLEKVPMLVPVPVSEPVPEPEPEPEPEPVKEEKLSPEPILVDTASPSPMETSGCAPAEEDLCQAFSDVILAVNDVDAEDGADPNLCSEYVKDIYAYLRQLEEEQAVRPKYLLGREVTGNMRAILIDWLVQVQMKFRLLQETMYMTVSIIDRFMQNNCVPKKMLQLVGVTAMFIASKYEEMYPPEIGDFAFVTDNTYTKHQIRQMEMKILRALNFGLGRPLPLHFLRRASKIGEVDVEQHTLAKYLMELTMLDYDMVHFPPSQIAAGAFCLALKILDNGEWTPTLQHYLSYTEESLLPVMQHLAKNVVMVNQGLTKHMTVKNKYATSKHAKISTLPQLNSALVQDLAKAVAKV

| Compound | pIC50 (CDK2/CycE) | pIC50 (HCT116) | pIC50 (CDK1/CycB) | pIC50 [1] | pIC50 (HeLa) | pIC50 (SW480) | pIC50 (DU145) | pIC50 (MCF7; Homo sapiens, MCF7, 96 h) | pIC50 (NCI-H460) | pIC50 (HeLa-MaTu-ADR) | pIC50 (Caco-2) | pIC50 (HeLa-MaTu) | pIC50 (MCF7) | pIC50 (DU145; Homo sapiens, DU-145, 96 h) | pIC50 (HeLa-MaTu-ADR; Homo sapiens, 96 h) | pIC50 (HeLa-MaTu; Homo sapiens, 96 h) | pIC50 (NCI-H460; Homo sapiens, NCI-H460, 96 h) | pIC50 (Caco-2; Homo sapiens, Caco-2, 96 h) |
| --- | --- | --- | --- | --- | --- | --- | --- | --- | --- | --- | --- | --- | --- | --- | --- | --- | --- | --- |
| C[C@@H](Nc1nc(Nc2ccc(S(=N)(=O)C3CC3)cc2)ncc1C(F)(F)F)C(C)(C)O (mixture of isomers) [Example 5-SI-1, (RS)—S-Cyclopropyl-S-(4-{[4-{[(R)-2-hydroxy-1,2-dimethylpropyl]amino}-5-(trifluoromethyl)-pyrimidin-2-yl]amino}phenyl)sulfoximide] | 8.10 |  | 7.60 | 7.15 |  |  | 6.97 | 7.48 | 7.15 | 7.20 | 6.95 | 7.66 |  |  |  |  |  |  |
| C[C@@H](Nc1nc(Nc2ccc(S(=N)(=O)C3CC3)cc2)ncc1C(F)(F)F)C(C)(C)O (mixture of isomers) [Example 5-SI-2, (RS)—S-Cyclopropyl-S-(4-{[4-{[(R)-2-hydroxy-1,2-dimethylpropyl]amino}-5-(trifluoromethyl)-pyrimidin-2-yl]amino}phenyl)sulfoximide] | 8.10 | 7.55 | 8.05 | 7.09 | 7.30 |  | 7.59 |  | 7.48 | 7.62 | 7.38 | 8.00 | 7.47 |  |  |  |  |  |
| C[C@@H](Oc1nc(Nc2ccc(S(C)(=N)=O)cc2)ncc1C(F)(F)F)C(C)(C)O (mixture of isomers) [Example 3, (RS)—S-(4-{[4-{[(R)-2-Hydroxy-1,2-dimethylpropyl]oxy}-5-(trifluoromethyl)pyrimidin-2-yl]-amino}phenyl)-S-methylsulfoximide] | 8.00 |  | 7.89 |  |  |  |  | 7.15 |  |  |  |  |  | 7.12 | 7.20 | 7.15 | 6.95 | 7.01 |
| C[C@@H](O)[C@@H](C)Oc1nc(Nc2ccc(S(C)(=N)=O)cc2)ncc1C(F)(F)F (single isomer, unassigned) [Example 2-SI-1] | 8.22 |  | 8.30 | 7.08 |  |  |  |  |  |  |  |  |  |  |  | 7.92 |  |  |
| C[C@@H](O)[C@@H](C)Nc1nc(Nc2ccc(S(C)(=N)=O)cc2)ncc1C(F)(F)F (single isomer, unassigned) [Example 8-SI-1] | 8.22 |  | 7.96 | 6.94 |  |  |  | 7.36 |  |  |  |  |  |  | 7.52 | 7.85 | 7.52 | 7.49 |

These reach a higher pIC50 (CDK2/CycE). Values come first.

| pIC50 (CDK2/CycE) | pIC50 (HCT116) | pIC50 (CDK1/CycB) | pIC50 [1] | pIC50 (HeLa) | pIC50 (SW480) | pIC50 (DU145) | pIC50 (MCF7; Homo sapiens, MCF7, 96 h) | pIC50 (NCI-H460) | pIC50 (HeLa-MaTu-ADR) | pIC50 (Caco-2) | pIC50 (HeLa-MaTu) | pIC50 (MCF7) | pIC50 (DU145; Homo sapiens, DU-145, 96 h) | pIC50 (HeLa-MaTu-ADR; Homo sapiens, 96 h) | pIC50 (HeLa-MaTu; Homo sapiens, 96 h) | pIC50 (NCI-H460; Homo sapiens, NCI-H460, 96 h) | pIC50 (Caco-2; Homo sapiens, Caco-2, 96 h) | Compound |
| --- | --- | --- | --- | --- | --- | --- | --- | --- | --- | --- | --- | --- | --- | --- | --- | --- | --- | --- |
| 8.30 | 7.77 | 8.15 | 6.87 | 7.48 | 7.35 |  |  |  |  |  |  |  |  |  |  |  |  | CCS(=N)(=O)c1ccc(Nc2ncc(C(F)(F)F)c(N[C@H](C)C(C)(C)O)n2)cc1 (single isomer, unassigned) [Example 7-SI-2] |
| 8.30 | 7.62 | 8.30 | 7.15 | 7.49 |  |  |  | 7.62 |  | 7.59 |  | 7.59 | 6.71 | 7.74 | 8.00 |  |  | CCS(=N)(=O)c1ccc(Nc2ncc(C(F)(F)F)c(N[C@H](C)[C@@H](C)O)n2)cc1 (mixture of isomers) [Example 6-SI-2, (RS)—S-Ethyl-S-(4-{[4-{[(1R,2R)-2-hydroxy-1-methylpropyl]amino}-5-(trifluoromethyl)-pyrimidin-2-yl]amino}phenyl)sulfoximide] |
| 8.30 |  | 8.40 | 6.80 |  |  |  |  |  |  |  |  |  |  |  | 7.70 |  |  | C[C@@H](Nc1nc(Nc2ccc(S(C)(=N)=O)cc2)ncc1C(F)(F)F)C(C)(C)O (single isomer, unassigned) [Example 9-SI-1] |
| 8.40 | 7.77 | 8.52 | 7.09 | 7.60 | 7.51 |  |  |  |  |  |  |  |  |  |  |  |  | C[C@@H](O)[C@@H](C)Nc1nc(Nc2ccc(S(C)(=N)=O)cc2)ncc1C(F)(F)F (single isomer, unassigned) [Example 8-SI-2] |

Source: patent US20130210846A1, “USE OF NOVEL PAN-CDK INHIBITORS FOR TREATING TUMORS” (BAYER INTELLECTUAL PROPERTY GMBH, priority 2010, published 2013)
